Test results: patent publication USRE43615E1, “Method for controlling the yeast-to-filamentous growth transition in fungi” (priority 2007, dated 2012)

Experiments:
[1] = test system: C. albicans conditional pseudohyphal mutant (grr1/grr1, MET3p-driven GRR1) yeast-to-pseudohypha transition; assay: Inhibition of yeast-to-pseudohypha transition in optical microplates, monitored by microscopy; type: cell-based, Candida albicans
Text: (§1) A simple in vitro assay system was designed to detect inhibition of the yeast-to-filamentous growth transition in C. albicans. In this assay, C. albicans cells are first grown under conditions that maintain them in a yeast growth form. The yeast-form cells are then transferred to the wells of an optical microplate containing (i) a medium that induces either the yeast-to-hypha transition (in wild type cells) or the yeast-to-pseudohypha transition (in a conditional pseudohyphal mutant strain) and (ii) varying concentrations of BH3I-1 (typically 0, 10, 30, 50, 100 and 200 μM BH3I-1). The plates are incubated for up to six hours at 37° C. (to test for the hyphal transition) or up to 24 hours 30° C. (to test for the pseudohyphal transition). The transition to filamentous growth (or lack thereof) is monitored in the optical microplates directly with a Nikon TE200 inverted microscope.
(§2) C. albicans SC3514 was used as the “wild type” strain to monitor the yeast-to-hypha transition. A “conditional pseudohyphal mutant” strain was used to monitor the yeast-to-pseudohypha transition. The conditional strain harbors deletions of both native GRR1 alleles plus an introduced wild type copy of GRR1 under the control of the regulatable MET3 promoter. Deletion of GRR1 was previously found to cause pseudohyphal growth.
(§3) Standard yeast growth media were used for these experiments. To maintain wild type cells in the yeast-form, cells were grown in YPD medium (1% Yeast Extract, 2% Peptone and 2% Dextrose) at 30° C. To induce hyphal growth in the wild type strain, cells were transferred to Spider medium (1% Nutrient broth, 1% mannitol, […]) at 37° C. or to Lee's medium (0.5% (NH4)SO4, 0.02% MgSO4, 0.5% NaCl, 1.25% glucose, supplemented with alanine, leucine, lysine, ornithine, phenylalanine threonine and biotin) at 37° C. To maintain the conditional pseudohyphal mutant strain in the yeast-form, cells were grown in YNB medium (Yeast Nitrogen Base, ammonium sulfate, succinic acid supplemented with the appropriate amino acids) at 30° C. […]

[2] = test system: C. albicans SC3514 (wild type) yeast-to-hypha transition; assay: Inhibition of yeast-to-hypha transition in optical microplates, monitored by microscopy; type: cell-based, Candida albicans
Text: as §1, §2, §3

CC(C)C(C(=O)O)N1C(=O)C(=Cc2ccc(Br)cc2)SC1=S (stereo not drawn) [BH3I-1, 5-(p-Bromobenzylidine)-α-isopropyl-4-oxo-2-thioxo-3-thiozolidineacetic acid]
yeast-to-pseudohypha transition of treated cells ([1]; conditional pseudohyphal mutant transferred from YNB medium to YNB plus methionine/cysteine medium): failed to undergo the yeast-to-pseudohypha transition
MIC for the yeast-to-pseudohypha transition ([1]; conditional pseudohyphal mutant, YNB plus methionine/cysteine medium, 30° C.): 100 µM
growth of treated cells in pseudohyphal-inducing medium ([1]; conditional pseudohyphal mutant, pseudohyphal-inducing medium): continued to divide as yeast cells
minimum inhibitory concentration (MIC) for the yeast-to-hypha transition ([2]; wild type SC3514, both hyphal-inducing media (Spider medium, Lee's medium), 37° C.): 50 to 100 µM
growth of treated cells in hyphal-inducing media ([2]; wild type SC3514, hyphal-inducing media): continued to divide as yeast cells
yeast-to-hypha transition of treated cells ([2]; wild type SC3514 transferred from YPD medium to Spider medium or Lee's medium): failed to undergo the yeast-to-hypha transition
